# Assay results reported in publication PMC10272112 (Nature Communications, 2023).
# Tests used:
# HDAC4 = target: T1, HDAC4 (Homo sapiens, UniProt P56524); experiment: Chemoproteomic competition pulldown assay with iC; assay type: binding; settings: for relative binding vs DMSO: iC
# T1 construct: endogenous in cells; host or cells: cell lysate
# Protocol: (§1) To identify proteins directly bound by lipoic acid, we employed a chemoproteomic competition assay. Briefly, (R/S)-LA was immobilized on sepharose beads via an amidation reaction to form an affinity matrix (abbreviated as iL; Fig. 1a). This affinity matrix can be incubated with cell lysate to pull down potential LA or LM target proteins and identify these targets via bottom-up proteomics. In a competition assay, free LA or LM were incubated with lysate at different concentrations before pulling down and quantifying target proteins. […] (Fig. 1b, see “Methods” for details). […] The lysate buffer used in this assay contains 1 mM DTT to mimic the intracellular reductive milieu and to reduce lipoic acid and LM. […] Additional competition assays performed in lung adenocarcinoma cell A549 lysate also identified HDAC1, HDAC2, and HDAC6 as targets (Supplementary Fig. 1b). Amongst the three cell lines tested, HDACs were the only confidently identified targets across the 1500–3000 proteins quantified in these assays. […] We validated the results by analogous pulldown competition assays using two other affinity matrices prepared via the immobilization of either the HDAC inhibitor Quisinostat (iQ) and an analog of the class IIa HDAC inhibitor Bürli’s 31[14] (iC)[12]. We have previously shown that these affinity matrices specifically bind to the active sites of HDACs and have used them for HDACi selectivity profiling. Indeed, binding of (R/S)-LA and (R/S)-LM to HDAC1, HDAC2, HDAC3, HDAC6, and, to a lesser extent, HDAC8 was confirmed in these assays (Supplementary Fig. 1c, d). No binding to class IIa HDACs or the recently discovered common HDAC inhibitor off-target MBLAC2 was observed (Supplementary Fig. 1e)[12]. […] This observation might reflect electrostatic repulsion between the HDAC10 active site gate-keeper glutamic acid residues[15],[16] and the terminal carboxylic acid of LA.
# (§2) To assess the degree of protein depletion from lysates by the affinity matrix, a second pulldown (PDPD) with fresh beads was performed using the unbound protein fraction from the vehicle control flow through. The beads were washed (1 × 1 mL of lysis buffer without inhibitors and only 0.4% Igepal, 2 × 2 mL of lysis buffer without inhibitors and only 0.2% Igepal), and captured proteins were denatured with 8 M urea buffer, alkylated with 55 mM chloroacetamide and digested with Trypsin according to standard procedures. The resulting peptides were desalted on a C18 filter plate (Sep-Pak® tC18 µElution Plate, Waters), vacuum dried, and stored at −20 °C until LC–MSMS measurement.
# (§3) For the competition assays, relative binding was calculated based on the protein intensity ratio to the DMSO control for every single inhibitor concentration. EC50 values were derived from a four-parameter log-logistic regression with variable slope (constrain: bottom > 0). The obtained EC50 values were multiplied with a protein-dependent correction factor (cf), resulting in the apparent Kd value (Kd^app). The correction factor is determined by calculating the ratio of the protein intensity of two consecutive pulldowns of the vehicle control sample[13]. Targets of the inhibitors were annotated manually according to published procedures[12],[46],[47]. […] Additionally, the number of unique peptides and MSMS counts per condition were taken into account. Positive target binding across several independent experiments performed with different cell lysates further substantiated our confidence for a true positive drug-target binding event.
# MBLAC2 = target: T2, MBLAC2 (Homo sapiens, UniProt Q68D91); experiment: Chemoproteomic competition pulldown assay with iC; assay type: binding; settings: for relative binding vs DMSO: iC
# T2 construct: endogenous in cells; host or cells: cell lysate
# T2 sequence (Q68D91 1-279): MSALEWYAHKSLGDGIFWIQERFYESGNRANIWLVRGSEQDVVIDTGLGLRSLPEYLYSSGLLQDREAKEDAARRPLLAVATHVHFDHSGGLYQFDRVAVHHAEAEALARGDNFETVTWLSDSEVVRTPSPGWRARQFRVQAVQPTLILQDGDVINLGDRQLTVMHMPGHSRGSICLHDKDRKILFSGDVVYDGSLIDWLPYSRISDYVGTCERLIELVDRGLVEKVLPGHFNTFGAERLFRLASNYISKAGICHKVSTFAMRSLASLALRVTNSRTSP
# Protocol: as §1, §2, §3
# [1] = cited from earlier work
# T1 sequence (P56524 whole entry): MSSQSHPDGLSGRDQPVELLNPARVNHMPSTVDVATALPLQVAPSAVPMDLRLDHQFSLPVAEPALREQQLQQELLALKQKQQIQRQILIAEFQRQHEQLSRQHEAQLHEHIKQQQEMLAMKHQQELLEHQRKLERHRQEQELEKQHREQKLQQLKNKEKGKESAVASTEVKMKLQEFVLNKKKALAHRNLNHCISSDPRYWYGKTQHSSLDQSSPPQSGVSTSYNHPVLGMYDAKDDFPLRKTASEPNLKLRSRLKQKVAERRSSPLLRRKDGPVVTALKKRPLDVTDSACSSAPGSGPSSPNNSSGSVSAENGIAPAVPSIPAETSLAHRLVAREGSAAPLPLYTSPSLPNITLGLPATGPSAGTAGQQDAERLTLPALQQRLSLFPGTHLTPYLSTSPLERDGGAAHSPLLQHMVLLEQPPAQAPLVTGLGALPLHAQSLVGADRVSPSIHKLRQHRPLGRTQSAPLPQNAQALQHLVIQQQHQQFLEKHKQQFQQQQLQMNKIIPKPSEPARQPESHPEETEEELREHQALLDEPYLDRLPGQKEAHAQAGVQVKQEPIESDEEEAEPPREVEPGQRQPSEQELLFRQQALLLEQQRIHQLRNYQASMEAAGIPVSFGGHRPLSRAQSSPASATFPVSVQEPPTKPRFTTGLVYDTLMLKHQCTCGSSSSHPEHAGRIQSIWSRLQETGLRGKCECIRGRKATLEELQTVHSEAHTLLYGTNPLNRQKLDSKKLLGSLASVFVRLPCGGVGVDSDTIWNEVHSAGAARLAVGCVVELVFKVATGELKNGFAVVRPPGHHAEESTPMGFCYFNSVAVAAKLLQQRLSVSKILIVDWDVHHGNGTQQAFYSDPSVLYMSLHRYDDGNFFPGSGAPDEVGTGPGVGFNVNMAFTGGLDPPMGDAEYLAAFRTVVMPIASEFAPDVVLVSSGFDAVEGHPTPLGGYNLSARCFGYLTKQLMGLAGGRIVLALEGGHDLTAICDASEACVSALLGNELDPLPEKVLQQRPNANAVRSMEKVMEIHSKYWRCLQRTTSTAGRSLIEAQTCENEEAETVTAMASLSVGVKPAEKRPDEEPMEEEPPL
smiles,measurement,setting,value
"O=C(O)CCCCC1CCSS1 (racemic) [(R/S)-LA, (R/S)-lipoic acid]",binding to class IIa HDACs,HDAC4; affinity matrix iC,No binding
same,relative binding vs DMSO,HDAC4; log10 M -3.52288,1.609
same,relative binding vs DMSO,HDAC4; log10 M -4,1.464
same,relative binding vs DMSO,HDAC4; log10 M -4.52288,1.531
same,relative binding vs DMSO,HDAC4; log10 M -5,1.518
same,relative binding vs DMSO,HDAC4; log10 M -5.52288,1.32
same,relative binding vs DMSO,HDAC4; log10 M -6,1.575
same,relative binding vs DMSO,HDAC4; log10 M -6.52288,1.649
same,relative binding vs DMSO,HDAC4; log10 M -7,1.276
same,binding to MBLAC2,MBLAC2; affinity matrix iC,No binding
same,relative binding vs DMSO,MBLAC2; log10 M -3.52288,0.9784
same,relative binding vs DMSO,MBLAC2; log10 M -4,1.054
same,relative binding vs DMSO,MBLAC2; log10 M -4.52288,1.366
same,relative binding vs DMSO,MBLAC2; log10 M -5,1.348
same,relative binding vs DMSO,MBLAC2; log10 M -5.52288,1.098
same,relative binding vs DMSO,MBLAC2; log10 M -6,1.484
same,relative binding vs DMSO,MBLAC2; log10 M -6.52288,0.5203
same,relative binding vs DMSO,MBLAC2; log10 M -7,0.9131
same,peak plasma concentrations,"[1]; clinically relevant doses 600 to 2400 mg/day, orally and intravenously",100 to 500 µM
same,peak plasma concentration,[1]; in humans,about 0.5 mM
